Measurements reported in ChEMBL document CHEMBL4028802, “DILIrank: the largest reference drug list ranked by the risk for developing drug-induced liver injury in humans” (Drug Discov Today, 2016).

Key:
Homo sapiens [1] = organism: Homo sapiens; experiment: Liver toxicity in human assessed as induction of drug-induced liver injury by measuring verified drug-induced liver injury concern status
Homo sapiens [2] = organism: Homo sapiens; experiment: Liver toxicity in human assessed as induction of drug-induced liver injury by measuring severity class index
For DILI severity class in this document: key of the grades not given here.

Compound | DILI_Concern (Homo sapiens [1]) | DILI_severity_class (Homo sapiens [2])
CCCCN1C[C@H](O)[C@@H](O)[C@H](O)[C@H]1CO | No-Dili-Concern | 0
Cl.NCCNCCNCCN | No-Dili-Concern | 1
C[C@@H](NCCCc1cccc(C(F)(F)F)c1)c1cccc2ccccc12 | No-Dili-Concern | 0
CC(C)CN(C[C@@H](O)[C@H](Cc1ccccc1)NC(=O)O[C@H]1CO[C@H]2OCC[C@H]21)S(=O)(=O)c1ccc(N)cc1 | Most-Dili-Concern | 8
CC1=C(CC(=O)O)c2cc(F)ccc2/C1=C\c1ccc([S+](C)[O-])cc1 (stereo unspecified) | Most-Dili-Concern | 8
CCC[C@@]1(CCc2ccccc2)CC(O)=C([C@H](CC)c2cccc(NS(=O)(=O)c3ccc(C(F)(F)F)cn3)c2)C(=O)O1 | Most-Dili-Concern | 8
O=S(=O)(OC[C@H]1O[C@@H](O[C@]2(COS(=O)(=O)[O][Al]([OH])[OH])O[C@H](OS(=O)(=O)[O][Al]([OH])[OH])[C@@H](OS(=O)(=O)[O][Al]([OH])[OH])[C@@H]2OS(=O)(=O)[O][Al]([OH])[OH])[C@H](OS(=O)(=O)[O][Al]([OH])[OH])[C@@H](OS(=O)(=O)[O][Al]([OH])[OH])[C@@H]1OS(=O)(=O)[O][Al]([OH])[OH])[O][Al]([OH])[OH].[OH][Al]([OH])[OH].[OH][Al]([OH])[OH].[OH][Al]([OH])[OH].[OH][Al]([OH])[OH].[OH][Al]([OH])[OH].[OH][Al]([OH])[OH].[OH][Al]([OH])[OH].[OH][Al]([OH])[OH] | No-Dili-Concern | 0
CCN(CC)C(=O)C1(c2ccccc2)CC1CN (stereo unspecified) | Most-Dili-Concern | 7
O=C(O)COc1ccc(C(=O)c2cccs2)c(Cl)c1Cl | Most-Dili-Concern | 8
CC(=O)N[C@@H]1[C@@H](O[C@@H]2O[C@@H](C(=O)O)[C@@H](O)[C@H](O)[C@H]2O)[C@@H](OS(=O)(=O)O)[C@@H](CO)O[C@H]1O | Most-Dili-Concern | 8
CCC(C)CCCCC(=O)N[C@@H](CCNCS(=O)(=O)O)C(=O)N[C@H](C(=O)N[C@@H](CCNCS(=O)(=O)O)C(=O)N[C@H]1CCNC(=O)[C@H]([C@@H](C)O)NC(=O)[C@H](CCNCS(=O)(=O)O)NC(=O)[C@H](CCNCS(=O)(=O)O)NC(=O)[C@H](CC(C)C)NC(=O)[C@@H](CC(C)C)NC(=O)[C@H](CCNCS(=O)(=O)O)NC1=O)[C@@H](C)O (stereo partly specified) | No-Dili-Concern | 0
NCC1O[C@H](O[C@H]2[C@@H](O)[C@H](O[C@H]3[C@H](O)[C@@H](N)C[C@@H](N)[C@@H]3O[C@H]3O[C@H](CN)[C@@H](O)[C@H](O)[C@H]3N)O[C@@H]2CO)[C@H](N)[C@@H](O)[C@@H]1O (stereo partly specified) | No-Dili-Concern | 0
CCO[C@@H]1OC(=O)C[C@@H]1NC(=O)[C@@H]1CCCN2C(=O)CC[C@H](NC(=O)c3nccc4ccccc34)C(=O)N12 | Most-Dili-Concern | 8
